ChEMBL document CHEMBL3885881, “DrugMatrix”

Organism: Rattus norvegicus
Experiment: DrugMatrix - Regimen: Daily Repeat
Assay type: toxicity, organism-based, Sprague-Dawley
Design: regimen Daily Repeat, gender Male, age 6-8 weeks
Details: in vivo, po, route oral GAVAGE, vehicle .5 % CMC; for ABSOLUTE BASOPHIL / ABSOLUTE EOSINOPHIL / ABSOLUTE LYMPHOCYTE / ABSOLUTE MONOCYTE / ABSOLUTE SEGMENTED NEUTROPHIL / BASOPHIL / EOSINOPHIL / ERYTHROCYTE COUNT / HEMATOCRIT / HEMOGLOBIN / LEUKOCYTE COUNT / LYMPHOCYTE / MEAN CORPUSCULAR HEMOGLOBIN / MEAN CORPUSCULAR HEMOGLOBIN CONCENTRATION / MEAN CORPUSCULAR VOLUME / MONOCYTE / NEUTROPHIL / NUCLEATED RED BLOOD CELLS / PLATELET COUNT: tissue Blood; for ALANINE AMINOTRANSFERASE / ALBUMIN / ALKALINE PHOSPHATASE / ASPARTATE AMINOTRANSFERASE / BLOOD UREA NITROGEN / CARBON DIOXIDE / CHLORIDE / CHOLESTEROL / CREATINE PHOSPHOKINASE / CREATININE / GLUCOSE / LACTATE DEHYDROGENASE / LIPASE / PHOSPHORUS / POTASSIUM / SODIUM / TOTAL BILIRUBIN / TOTAL PROTEIN / URIC ACID: tissue Plasma
[1] = 150 mg/kg, 120 h, dose level Low, time 5 day
[2] = 1500 mg/kg, 72 h, dose level High, time 3 day
[3] = 1500 mg/kg, 120 h, dose level High, time 5 day

## C[C@@H](O)[C@H]1C(=O)N2C(C(=O)O)=C(S[C@@H]3CN[C@H](C(=O)N(C)C)C3)[C@H](C)[C@H]12 [MEROPENEM]
[1]
  ABSOLUTE BASOPHIL: 0 CELLS/uL
  ABSOLUTE EOSINOPHIL: 351 CELLS/uL
  ABSOLUTE LYMPHOCYTE: 13228.33 CELLS/uL
  ABSOLUTE MONOCYTE: 0 CELLS/uL
  ABSOLUTE SEGMENTED NEUTROPHIL: 1520.67 CELLS/uL
  BASOPHIL: 0%
  EOSINOPHIL: 2.33%
  ERYTHROCYTE COUNT: 5.62 x10E6/uL
  HEMATOCRIT: 34.4%
  HEMOGLOBIN: 13.1 G/DL
  LEUKOCYTE COUNT: 15.1 x10E3/uL
  LYMPHOCYTE: 88%
  MEAN CORPUSCULAR HEMOGLOBIN: 23.37 pg
  MEAN CORPUSCULAR HEMOGLOBIN CONCENTRATION: 38.1 G/DL
  MEAN CORPUSCULAR VOLUME: 61.33 fL
  MONOCYTE: 0%
  NEUTROPHIL: 9.67%
  NUCLEATED RED BLOOD CELLS: 0 /100WBC
  PLATELET COUNT: 1149.33 x10E3/uL
  ALANINE AMINOTRANSFERASE: 61.33 u/L
  ALBUMIN: 4.13 G/DL
  ALKALINE PHOSPHATASE: 367 u/L
  ASPARTATE AMINOTRANSFERASE: 86 u/L
  BLOOD UREA NITROGEN: 19 mg/dL
  CARBON DIOXIDE: 25.33 mmol/L
  CHLORIDE: 101.67 MEQ/L
  CHOLESTEROL: 70 mg/dL
  CREATINE PHOSPHOKINASE: 254 u/L
  CREATININE: 0.23 mg/dL
  GLUCOSE: 161 mg/dL
  LACTATE DEHYDROGENASE: 187.67 u/L
  LIPASE: 9 u/L
  PHOSPHORUS: 12.3 mg/dL
  POTASSIUM: 6.26 MEQ/L
  SODIUM: 142.3 MEQ/L
  TOTAL BILIRUBIN: 0.17 mg/dL
  TOTAL PROTEIN: 5.93 G/DL
  URIC ACID: 1.6 mg/dL
[2]
  ABSOLUTE BASOPHIL: 0 CELLS/uL
  ABSOLUTE EOSINOPHIL: 214 CELLS/uL
  ABSOLUTE LYMPHOCYTE: 12444.67 CELLS/uL
  ABSOLUTE MONOCYTE: 0 CELLS/uL
  ABSOLUTE SEGMENTED NEUTROPHIL: 841.33 CELLS/uL
  BASOPHIL: 0%
  EOSINOPHIL: 1.33%
  ERYTHROCYTE COUNT: 5.72 x10E6/uL
  HEMATOCRIT: 35.5%
  HEMOGLOBIN: 13.53 G/DL
  LEUKOCYTE COUNT: 13.5 x10E3/uL
  LYMPHOCYTE: 92.33%
  MEAN CORPUSCULAR HEMOGLOBIN: 23.8 pg
  MEAN CORPUSCULAR HEMOGLOBIN CONCENTRATION: 38.2 G/DL
  MEAN CORPUSCULAR VOLUME: 62.23 fL
  MONOCYTE: 0%
  NEUTROPHIL: 6.33%
  NUCLEATED RED BLOOD CELLS: 0 /100WBC
  PLATELET COUNT: 1189 x10E3/uL
  ALANINE AMINOTRANSFERASE: 52.67 u/L
  ALBUMIN: 4.33 G/DL
  ALKALINE PHOSPHATASE: 317 u/L
  ASPARTATE AMINOTRANSFERASE: 76 u/L
  BLOOD UREA NITROGEN: 13.33 mg/dL
  CARBON DIOXIDE: 29.33 mmol/L
  CHLORIDE: 99.67 MEQ/L
  CHOLESTEROL: 85.33 mg/dL
  CREATINE PHOSPHOKINASE: 176.67 u/L
  CREATININE: 0.17 mg/dL
  GLUCOSE: 160.67 mg/dL
  LACTATE DEHYDROGENASE: 71 u/L
  LIPASE: 9 u/L
  PHOSPHORUS: 11.83 mg/dL
  POTASSIUM: 6.87 MEQ/L
  SODIUM: 144.6 MEQ/L
  TOTAL BILIRUBIN: 0.17 mg/dL
  TOTAL PROTEIN: 5.9 G/DL
  URIC ACID: 1.9 mg/dL
[3]
  ABSOLUTE BASOPHIL: 0 CELLS/uL
  ABSOLUTE EOSINOPHIL: 276.67 CELLS/uL
  ABSOLUTE LYMPHOCYTE: 12982 CELLS/uL
  ABSOLUTE MONOCYTE: 0 CELLS/uL
  ABSOLUTE SEGMENTED NEUTROPHIL: 1474.67 CELLS/uL
  BASOPHIL: 0%
  EOSINOPHIL: 2%
  ERYTHROCYTE COUNT: 5.69 x10E6/uL
  HEMATOCRIT: 36.37%
  HEMOGLOBIN: 13.67 G/DL
  LEUKOCYTE COUNT: 14.73 x10E3/uL
  LYMPHOCYTE: 88%
  MEAN CORPUSCULAR HEMOGLOBIN: 24.07 pg
  MEAN CORPUSCULAR HEMOGLOBIN CONCENTRATION: 37.6 G/DL
  MEAN CORPUSCULAR VOLUME: 63.97 fL
  MONOCYTE: 0%
  NEUTROPHIL: 10%
  NUCLEATED RED BLOOD CELLS: 0 /100WBC
  PLATELET COUNT: 1178 x10E3/uL
  ALANINE AMINOTRANSFERASE: 52.33 u/L
  ALBUMIN: 4.47 G/DL
  ALKALINE PHOSPHATASE: 443.33 u/L
  ASPARTATE AMINOTRANSFERASE: 75.67 u/L
  BLOOD UREA NITROGEN: 16.67 mg/dL
  CARBON DIOXIDE: 28.33 mmol/L
  CHLORIDE: 101.33 MEQ/L
  CHOLESTEROL: 60.67 mg/dL
  CREATINE PHOSPHOKINASE: 199 u/L
  CREATININE: 0.23 mg/dL
  GLUCOSE: 155 mg/dL
  LACTATE DEHYDROGENASE: 127.33 u/L
  LIPASE: 9 u/L
  PHOSPHORUS: 12.27 mg/dL
  POTASSIUM: 6.59 MEQ/L
  SODIUM: 147.07 MEQ/L
  TOTAL BILIRUBIN: 0.13 mg/dL
  TOTAL PROTEIN: 6.3 G/DL
  URIC ACID: 1.6 mg/dL
